In one experiment the test system is HAP1 cells. The experiment can be described thus: Cell viability assay of wild-type versus mutagenized drug-resistant cells. Conditions: for Drug sensitivity of HDR-edited cells carrying NAMPT mutations: NAMPT mutations reinstalled in native locus of parental cells by CRISPR-induced HDR; for Drug sensitivity of surviving colonies after tiling library transduction and drug selection: HAP1 Cas9 cells, FDA_target subpool B with bortezomib 14 days, or investigational library D with KPT-9274; for Drug sensitivity of colonies after Cas9/sgRNA targeting of the resistance hot spot: HAP1 cells, sgRNAs at XPO1 C528, KIF11 D130/A133, ERCC3 S162/Y163, NHEJ repair, 4 drug concentrations for selection; for Drug sensitivity of parental cells with a major protein variant reinstalled by CRISPR/Cas9-mediated HDR: XPO1 C528S,E529V,Q530H,K531I, KIF11 L132del, ERCC3 V166_K167insL in native locus. The experiment is classed as cell-based, human. Here is the method: Cells were transfected with the Neon Electroporation System after resuspension in Buffer R. DNA plasmids expressing the spCas9 or asCpf1 endonuclease and guiding RNA were added to a concentration of 37.5 ng/μL per plasmid and electroporated at 1,400-1,475V with 3 pulses of 10 ms. Two to three days after transfection, cells were treated with the respective drug to select for resistance over 7-14 days. Colonies were imaged with an IncuCyte© ZOOM (Essen Bioscience).
For HDR, a 123-134 bases long ssDNA oligonucleotide (850 ng) was added to the electroporation mixture in addition to the respective sgRNA and spCas9 expressing plasmids. Two days after electroporation, cells were treated with respective drugs for 5 days before imaging with an IncuCyte© ZOOM (Essen Bioscience). Following imaging, the HDR-template transfected cells were grown under drug selection for an additional week before any further experiments were performed.
Cell viability assays were performed by plating 3,000 HAP1, 5,000 HCT 116 or HL-60 cells in 96-well plates containing DMSO or a dilution of the test compound. Cells were incubated for 72 hours at 37° C. and 5% CO2. Cell viability was then assessed with the CellTiter 96® AQueous Non-Radioactive Cell Proliferation Assay (Promega) and colorimetric signals were measured with a Safire2™ (TECAN). Assays were performed in triplicate and each experiment was repeated at least once. Obtained values were adjusted with the background signal and divided by the DMSO control. Relative data values were then visualized and analyzed using a log-based 4 parameter model (GraphPad Prism).
For single guide drug resistance validation assays, 125.000 cells were transfected with Cas9 and the individual sgRNAs using the Neon Electroporation system as described above and plated into 6-well plates. Cells were treated 2-3 days after transfection with the respective compound for a period of 5-7 days, the medium was regularly refreshed and dead cells were washed away before imaging confluency using a live cell analysis system (Essen Bioscience, IncuCyte ZOOM®).

Experiment [1] relates to HAP1 cells stably expressing spCas9 or asCpf1. In words: CRISPR mutagenesis scanning drug-target identification screen with tiling sgRNA/crRNA libraries. It counts as cell-based, human. Conditions: 30 nM bortezomib, 300 nM KPT-9274 or 2 μM selinexor for 2 weeks. Here is the method:
FastQ files obtained after MiSeq sequencing were demultiplexed with the MiSeq Reporter software (Illumina). Demultiplexed and paired reads were trimmed, filtered and then aligned to the reference amplicon in Geneious (v9, Biomatters). To obtain haplotypes present in drug-resistant samples, bam files were analyzed with the CrispRVariants package run in RStudio by defining a 35-50 bp spanning region across the endonuclease cut site, as defined by pre-analysis of localized variants within Geneious. For this purpose, the CrispRVariants “readtotarget” input was run with parameters “upstream.snv” (30) and “downstream.snv” (15) on corresponding paired end sequencing reads to allow for haplotype determination. Haplotype nucleotide sequences were extracted with a small script. Nucleotide sequences were then visualized and mapped to the reference in Geneious v9 (Biomatters) and amino acid variants were determined. For visualization of the spectra of single nucleotide variants, NGS reads were aligned to the reference gene. Nucleotide occurrence frequencies were then determined in R on the aligned NGS reads using the deep SNV Bioconductor package. Sequences containing sgRNA/crRNAs from the lentiviral screens were trimmed from adapter sequences. Individual sgRNA/crRNA sequencing reads were then aligned to the pLCKO-U6-sgRNA vector within Geneious, counted with MaGeCK^18 and visualized in GraphPad Prism.
HAP1 cells stably expressing spCas9 or asCpf1 were resuspended in supplemented IMDM containing 8 μg/mL polybrene and transduced with lentiviral particles containing the desired sgRNA/crRNAs at a MOI of 0.25 (coverage of 5,000× per sgRNA for spCas9) or 0.35 (coverage of 15,000× per crRNA for asCpf1) by spinfection in 12-well plates. The next day cells were transferred to T150 cell flasks and selected with 1 μg/mL puromycin. Then 4 million (ispinesib/selinexor) or 10 million (KPT-9274/bortezomib) cells were harvested for DNA extraction and the remaining cells were treated for a period of 2 weeks with 8 nM ispinesib, 30 nM bortezomib, 300 nM KPT-9274 or 2 μM selinexor. […]

`O=C(/C=C/c1cccnc1)NCCCCC1CCN(C(=O)c2ccccc2)CC1` [FK866]: the “Drug sensitivity of HDR-edited cells carrying NAMPT mutations” value in the experiment on HAP1 cells is “cross-resistant”. Further, in the experiment on HAP1 cells (cell pool surviving the library D mutagenesis screen with KPT-9274, compared to wild-type), the “Drug sensitivity of the original KPT-9274 resistant cell pool” value is recorded as “cross-resistant”.

For `Nc1ccc(/C=C/C(=O)NCc2cc3cc(-c4ccc(C(=O)N5CCC(F)(F)CC5)cc4)cc(-c4ccc(F)cc4)c3o2)cn1` [KPT-9274], the “Target gene identified by enriched guide RNAs and resistance mutations” value (from here on “Target gene identified”) in experiment [1] is “NAMPT”. Further, in the experiment with HAP1 cells, the “Drug sensitivity of surviving colonies after tiling library transduction and drug selection” value is reported as “resistant”; the “Drug sensitivity of HDR-edited cells carrying NAMPT mutations” value is on record as “resistant”.

As for `CC(C)C[C@H](NC(=O)[C@H](Cc1ccccc1)NC(=O)c1cnccn1)B(O)O` [bortezomib], the “Target gene identified” value in experiment [1] is “PSMB5”. In addition, the “Drug sensitivity of surviving colonies after tiling library transduction and drug selection” value in the experiment on HAP1 cells was “resistant”.

Regarding `Cc1ccc(C(=O)N(CCCN)[C@@H](c2nc3cc(Cl)ccc3c(=O)n2Cc2ccccc2)C(C)C)cc1` [ispinesib], in the experiment on HAP1 cells, the “Drug sensitivity of colonies after Cas9/sgRNA targeting of the resistance hot spot” value is “resistant” and the “Drug sensitivity of parental cells with a major protein variant reinstalled by CRISPR/Cas9-mediated HDR” value (shortened to “Drug sensitivity … by CRISPR/Cas9-mediated HDR”) was “resistant”.

Turning to `O=C(/C=C\n1cnc(-c2cc(C(F)(F)F)cc(C(F)(F)F)c2)n1)NNc1cnccn1` [selinexor], the “Target gene identified” value in experiment [1] was “XPO1”. Also, in the experiment with HAP1 cells (HAP1 AsCpf1 cells, 10 genes, 1,100 crRNAs, selinexor 2 μM), the “Drug sensitivity of colonies after AsCpf1 tiling crRNA library and drug selection” value was “resistant”. Moreover, in the experiment with HAP1 cells, the “Drug sensitivity of colonies after Cas9/sgRNA targeting of the resistance hot spot” value is “resistant” and the “Drug sensitivity … by CRISPR/Cas9-mediated HDR” value is on record as “resistant”.

As for `CC(C)[C@]12O[C@H]1[C@@H]1O[C@]13[C@]1(O[C@H]1C[C@H]1C4=C(CC[C@@]13C)C(=O)OC4)[C@@H]2O` [triptolide], in the experiment with HAP1 cells, the “Drug sensitivity of colonies after Cas9/sgRNA targeting of the resistance hot spot” value is reported as “resistant” and the “Drug sensitivity … by CRISPR/Cas9-mediated HDR” value is “resistant”.
